Results taken from the NIST ThermoML archive (doi:10.1021/acs.jced.8b00132).
Values joined by “and” are separate entries in the source; they are usually repeats but may differ in a detail not shown here. Equal values may be shown once. Numbers after ± are expanded uncertainties.

Conditions: transient hot wire

O=C(C(F)(F)C(F)(F)F)C(F)(C(F)(F)F)C(F)(F)F [dodecafluoro-2-methylpentan-3-one]
Conditions	thermal conductivity
301.59 K, 15869 kPa, Liquid	0.06313 ± 0.0013 W/m/K
301.6 K, 48023 kPa, Liquid	0.07341 ± 0.0015 W/m/K
301.6 K, 48035 kPa, Liquid	0.07339 ± 0.0015 W/m/K
301.61 K, 9935 kPa, Liquid	0.06132 ± 0.0013 W/m/K
301.61 K, 9939 kPa, Liquid	0.0613 ± 0.0013 W/m/K
301.63 K, 185 kPa, Liquid	0.05695 ± 0.0012 W/m/K
301.63 K, 186 kPa, Liquid	0.05695 ± 0.0012 W/m/K
301.65 K, 38555 kPa, Liquid	0.07081 ± 0.0015 W/m/K
301.65 K, 38556 kPa, Liquid	0.07081 ± 0.0015 W/m/K
301.66 K, 4510 kPa, Liquid	0.05903 ± 0.0012 W/m/K
301.67 K, 181 kPa, Liquid	0.05696 ± 0.0012 W/m/K and 0.05695 ± 0.0012 W/m/K
301.67 K, 4513 kPa, Liquid	0.05926 ± 0.0012 W/m/K
301.68 K, 68591 kPa, Liquid	0.07706 ± 0.0016 W/m/K
301.68 K, 68604 kPa, Liquid	0.07747 ± 0.0016 W/m/K
301.69 K, 29956 kPa, Liquid	0.06826 ± 0.0014 W/m/K
301.69 K, 29958 kPa, Liquid	0.06828 ± 0.0014 W/m/K
301.69 K, 68130 kPa, Liquid	0.07843 ± 0.0016 W/m/K
301.7 K, 58476 kPa, Liquid	0.07534 ± 0.0015 W/m/K
301.7 K, 68201 kPa, Liquid	0.07832 ± 0.0016 W/m/K
301.71 K, 22368 kPa, Liquid	0.06584 ± 0.0014 W/m/K and 0.06583 ± 0.0014 W/m/K
301.71 K, 48170 kPa, Liquid	0.07234 ± 0.0015 W/m/K
301.71 K, 58480 kPa, Liquid	0.07563 ± 0.0015 W/m/K
301.72 K, 15988 kPa, Liquid	0.06294 ± 0.0013 W/m/K
301.72 K, 15989 kPa, Liquid	0.0629 ± 0.0013 W/m/K
301.72 K, 48184 kPa, Liquid	0.07274 ± 0.0015 W/m/K
301.73 K, 38646 kPa, Liquid	0.06956 ± 0.0014 W/m/K
301.73 K, 38651 kPa, Liquid	0.0696 ± 0.0014 W/m/K
301.75 K, 9736 kPa, Liquid	0.06053 ± 0.0013 W/m/K
301.75 K, 59377 kPa, Liquid	0.07624 ± 0.0016 W/m/K
301.75 K, 59380 kPa, Liquid	0.07624 ± 0.0016 W/m/K
301.75 K, 68800 kPa, Liquid	0.07711 ± 0.0016 W/m/K
301.76 K, 9735 kPa, Liquid	0.06062 ± 0.0013 W/m/K
301.76 K, 15639 kPa, Liquid	0.06344 ± 0.0013 W/m/K
301.76 K, 29978 kPa, Liquid	0.06731 ± 0.0014 W/m/K
301.76 K, 68808 kPa, Liquid	0.07639 ± 0.0016 W/m/K
301.77 K, 15644 kPa, Liquid	0.06346 ± 0.0013 W/m/K
301.78 K, 121 kPa, Liquid	0.05702 ± 0.0012 W/m/K and 0.05701 ± 0.0012 W/m/K
301.79 K, 4434 kPa, Liquid	0.05801 ± 0.0012 W/m/K
301.79 K, 4440 kPa, Liquid	0.05822 ± 0.0012 W/m/K
301.79 K, 22438 kPa, Liquid	0.06507 ± 0.0013 W/m/K
301.79 K, 22452 kPa, Liquid	0.06502 ± 0.0013 W/m/K
301.82 K, 102 kPa, Liquid	0.05674 ± 0.0012 W/m/K
301.82 K, 48012 kPa, Liquid	0.07336 ± 0.0015 W/m/K
301.82 K, 48021 kPa, Liquid	0.07338 ± 0.0015 W/m/K
301.83 K, 95 kPa, Liquid	0.05685 ± 0.0012 W/m/K
301.85 K, 9941 kPa, Liquid	0.06128 ± 0.0013 W/m/K
301.85 K, 9948 kPa, Liquid	0.06126 ± 0.0013 W/m/K
301.87 K, 38549 kPa, Liquid	0.07078 ± 0.0015 W/m/K
301.87 K, 38555 kPa, Liquid	0.07047 ± 0.0014 W/m/K
301.88 K, 34 kPa, Gas	0.01211 ± 0.0023 W/m/K
301.88 K, 35 kPa, Gas	0.01203 ± 0.0028 W/m/K
301.9 K, 185 kPa, Liquid	0.05689 ± 0.0012 W/m/K
301.91 K, 185 kPa, Liquid	0.05664 ± 0.0012 W/m/K
301.91 K, 4509 kPa, Liquid	0.059 ± 0.0012 W/m/K
301.91 K, 29959 kPa, Liquid	0.06823 ± 0.0014 W/m/K
301.91 K, 67990 kPa, Liquid	0.07824 ± 0.0016 W/m/K
301.91 K, 68063 kPa, Liquid	0.07829 ± 0.0016 W/m/K
301.92 K, 29958 kPa, Liquid	0.06824 ± 0.0014 W/m/K
301.93 K, 181 kPa, Liquid	0.05689 ± 0.0012 W/m/K and 0.05687 ± 0.0012 W/m/K
301.94 K, 4507 kPa, Liquid	0.05898 ± 0.0012 W/m/K
301.95 K, 22372 kPa, Liquid	0.06576 ± 0.0014 W/m/K
301.95 K, 22377 kPa, Liquid	0.06549 ± 0.0014 W/m/K
301.97 K, 59371 kPa, Liquid	0.07623 ± 0.0016 W/m/K
301.97 K, 59377 kPa, Liquid	0.07622 ± 0.0016 W/m/K
302.01 K, 15644 kPa, Liquid	0.06317 ± 0.0013 W/m/K
302.01 K, 15646 kPa, Liquid	0.06342 ± 0.0013 W/m/K
302.03 K, 121 kPa, Liquid	0.05696 ± 0.0012 W/m/K
302.04 K, 15871 kPa, Liquid	0.0631 ± 0.0013 W/m/K
302.04 K, 15874 kPa, Liquid	0.0632 ± 0.0013 W/m/K
302.04 K, 48005 kPa, Liquid	0.07334 ± 0.0015 W/m/K
302.05 K, 48000 kPa, Liquid	0.07334 ± 0.0015 W/m/K
302.09 K, 9944 kPa, Liquid	0.06121 ± 0.0013 W/m/K
302.09 K, 68569 kPa, Liquid	0.07801 ± 0.0016 W/m/K
302.09 K, 68583 kPa, Liquid	0.07807 ± 0.0016 W/m/K
302.1 K, 9951 kPa, Liquid	0.06119 ± 0.0013 W/m/K
302.1 K, 38544 kPa, Liquid	0.07073 ± 0.0015 W/m/K
302.11 K, 38546 kPa, Liquid	0.07074 ± 0.0015 W/m/K
302.13 K, 58450 kPa, Liquid	0.07511 ± 0.0015 W/m/K
302.13 K, 58453 kPa, Liquid	0.07504 ± 0.0015 W/m/K
302.15 K, 15982 kPa, Liquid	0.0631 ± 0.0013 W/m/K
302.15 K, 29954 kPa, Liquid	0.06819 ± 0.0014 W/m/K and 0.0682 ± 0.0014 W/m/K
302.15 K, 48164 kPa, Liquid	0.07319 ± 0.0015 W/m/K
302.16 K, 15975 kPa, Liquid	0.06301 ± 0.0013 W/m/K
302.16 K, 48161 kPa, Liquid	0.07327 ± 0.0015 W/m/K
